Molecular target: T1, FAS (Mus musculus, UniProt P19096)
T1 construct: endogenous in cells; host or cells: 3T3-L1 adipocytes (treated cells, then lysed)
Test: FAS enzyme activity of treated 3T3-L1 adipocytes
Type: cell-based
Conditions: 3T3-L1 cells, C75 25 μM, 6 days
Protocol: The influence of AIM on FAS activity of adipocyte or adipose tissue was examined. FAS activity was measured by the method of Kelley (Kelley et al., Biochem. J., 1986, 235:87-90) with slight modification. 3T3-L1 adipocytes, or lysates of adipose tissue of obese mice was mixed with acetyl-CoA and NADPH (0.2 M […] phosphate buffer [pH 7.0] containing 0.4 mM EDTA), and the mixture was placed in a spectrophotometer cuvette and maintained at 30° C. 20 μl of malonyl-CoA solution (0.2 mM) was added to start an enzyme reaction and decrease of OD was measured at a chart speed 2 cm/min. Based on the results, the enzyme activity of FAS was evaluated using the molar extinction coefficient of […] NADPH as 6220.
First, the FAS activity of 3T3-L1 cells treated for 6 days in the presence or absence of rAIM (5 μg/ml), and in the presence of C75 (25 μM) was measured. Moreover, the FAS activity of adipose tissues of AIM^+/+ mice and AIM^−/− mice and the FAS activity of adipose tissue of AIM^−/− mice administered with rAIM or BSA 3 hr before by intraadipose topical injection are shown in FIGS. 28 and 29, respectively.
All mice were fed with HFD for 20 weeks. The samples were dissolved (lysed) and the FAS activity was measured. The data was converted to that based on FAS protein, according to the results of WB performed using the same sample.

T1 sequence (P19096 whole entry): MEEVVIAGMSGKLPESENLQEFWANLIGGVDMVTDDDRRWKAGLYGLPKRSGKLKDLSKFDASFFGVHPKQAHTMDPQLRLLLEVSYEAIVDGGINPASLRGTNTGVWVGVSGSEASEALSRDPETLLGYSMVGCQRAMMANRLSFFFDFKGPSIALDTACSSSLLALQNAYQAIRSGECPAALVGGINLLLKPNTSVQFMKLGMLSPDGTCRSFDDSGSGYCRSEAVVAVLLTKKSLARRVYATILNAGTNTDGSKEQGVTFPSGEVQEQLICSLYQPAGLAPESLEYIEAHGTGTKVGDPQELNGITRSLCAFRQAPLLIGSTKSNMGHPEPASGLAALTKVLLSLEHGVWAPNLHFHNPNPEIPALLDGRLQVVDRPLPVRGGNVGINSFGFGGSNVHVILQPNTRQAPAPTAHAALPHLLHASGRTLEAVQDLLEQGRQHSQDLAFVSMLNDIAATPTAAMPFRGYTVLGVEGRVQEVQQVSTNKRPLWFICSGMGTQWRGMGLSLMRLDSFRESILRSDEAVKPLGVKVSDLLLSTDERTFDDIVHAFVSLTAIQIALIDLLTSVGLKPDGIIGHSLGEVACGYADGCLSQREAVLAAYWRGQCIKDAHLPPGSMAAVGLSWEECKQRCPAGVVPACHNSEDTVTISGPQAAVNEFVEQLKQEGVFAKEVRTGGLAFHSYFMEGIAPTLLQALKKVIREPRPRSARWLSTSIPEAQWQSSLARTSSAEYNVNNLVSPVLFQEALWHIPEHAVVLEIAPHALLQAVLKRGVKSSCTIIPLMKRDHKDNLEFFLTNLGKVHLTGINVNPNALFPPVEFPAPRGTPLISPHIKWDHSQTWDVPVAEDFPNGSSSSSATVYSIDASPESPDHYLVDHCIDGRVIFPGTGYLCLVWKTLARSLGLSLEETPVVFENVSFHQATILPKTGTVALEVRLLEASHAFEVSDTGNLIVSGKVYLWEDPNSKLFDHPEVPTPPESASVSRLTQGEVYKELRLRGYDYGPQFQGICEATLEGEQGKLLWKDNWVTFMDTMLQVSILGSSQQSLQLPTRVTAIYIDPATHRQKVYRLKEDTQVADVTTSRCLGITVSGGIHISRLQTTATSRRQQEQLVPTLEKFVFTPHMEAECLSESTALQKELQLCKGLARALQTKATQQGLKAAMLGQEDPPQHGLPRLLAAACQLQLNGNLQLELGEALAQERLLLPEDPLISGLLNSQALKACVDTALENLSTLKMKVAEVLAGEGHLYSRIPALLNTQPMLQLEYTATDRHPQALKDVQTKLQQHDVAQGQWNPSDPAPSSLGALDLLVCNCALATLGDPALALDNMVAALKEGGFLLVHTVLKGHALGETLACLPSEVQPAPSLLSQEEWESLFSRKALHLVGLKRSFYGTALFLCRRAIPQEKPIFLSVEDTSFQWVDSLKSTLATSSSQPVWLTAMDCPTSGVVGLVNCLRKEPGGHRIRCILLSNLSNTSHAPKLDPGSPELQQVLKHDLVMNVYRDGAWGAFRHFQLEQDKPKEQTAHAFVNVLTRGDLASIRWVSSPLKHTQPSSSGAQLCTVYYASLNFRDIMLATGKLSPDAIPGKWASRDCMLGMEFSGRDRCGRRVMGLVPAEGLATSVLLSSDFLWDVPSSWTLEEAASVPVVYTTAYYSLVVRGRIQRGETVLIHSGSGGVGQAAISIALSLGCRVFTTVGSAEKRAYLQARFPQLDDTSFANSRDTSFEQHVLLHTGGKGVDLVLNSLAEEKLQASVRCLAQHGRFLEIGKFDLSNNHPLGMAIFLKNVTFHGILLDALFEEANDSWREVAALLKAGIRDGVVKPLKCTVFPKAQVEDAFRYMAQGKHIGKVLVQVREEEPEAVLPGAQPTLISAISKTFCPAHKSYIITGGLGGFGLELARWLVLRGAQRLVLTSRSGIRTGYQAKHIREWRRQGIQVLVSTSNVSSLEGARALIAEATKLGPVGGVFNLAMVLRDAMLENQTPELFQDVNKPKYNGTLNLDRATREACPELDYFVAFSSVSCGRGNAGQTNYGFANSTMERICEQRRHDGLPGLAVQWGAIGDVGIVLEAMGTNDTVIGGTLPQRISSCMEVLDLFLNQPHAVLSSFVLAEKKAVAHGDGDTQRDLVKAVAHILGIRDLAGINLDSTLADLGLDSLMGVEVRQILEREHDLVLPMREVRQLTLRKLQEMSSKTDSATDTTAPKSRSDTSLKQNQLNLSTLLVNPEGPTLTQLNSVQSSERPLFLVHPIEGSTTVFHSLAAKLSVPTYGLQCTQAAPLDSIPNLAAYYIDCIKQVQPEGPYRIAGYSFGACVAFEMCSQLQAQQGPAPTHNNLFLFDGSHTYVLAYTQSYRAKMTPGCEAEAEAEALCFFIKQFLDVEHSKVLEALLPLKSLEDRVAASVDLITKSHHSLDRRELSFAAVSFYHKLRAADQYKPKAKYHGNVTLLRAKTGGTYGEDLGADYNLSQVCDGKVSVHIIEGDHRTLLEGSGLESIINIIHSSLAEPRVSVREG

## C=C1C(=O)OC(CCCCCCCC)C1C(=O)O (stereo not shown) [C75, reference compound]
  FAS activity, level of suppression compared with rAIM: the same

From US20130115220A1, “METHOD FOR PREVENTION OR TREATMENT OF METABOLIC SYNDROME” (DAINIPPON SUMITOMO PHARMA CO., LTD., priority 2010, published 2013)
